Source: article PMC11758220, “Identification of a Privileged Scaffold for Inhibition of Sterol Transport Proteins through the Synthesis and Ring Distortion of Diverse, Pseudo-Natural Products” (ACS Central Science, 2025)

Columns and labels:
Format in all cases: binding
STARD3 = target: T1, STARD3 (Homo sapiens, UniProt Q14849); assay: Differential scanning fluorimetry (DSF), STARD3; details: for ΔTm at 10 µM / STARD3 (DSF) ΔTm: single dose, Dose = 10 µM; for Kd: apparent Kd, mean of three experiments run in technical duplicates, read-out: STARD3 Kd,app (DSF); for STARD3 (DSF) ΔTmmax: maximal thermal shift
T1 construct: STARD3(216-444); made in house; host or cells: E. coli BL21(DE3)
T1 sequence (Q14849 216-444): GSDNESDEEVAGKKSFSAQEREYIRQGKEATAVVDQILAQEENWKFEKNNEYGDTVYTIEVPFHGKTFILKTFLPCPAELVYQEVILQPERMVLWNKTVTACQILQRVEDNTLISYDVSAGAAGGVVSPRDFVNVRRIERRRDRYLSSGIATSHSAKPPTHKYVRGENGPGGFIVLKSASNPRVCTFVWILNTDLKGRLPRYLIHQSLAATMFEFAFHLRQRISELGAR
From the text: (§1) Protein expression constructs
(§2) Human ASTER domains of Aster-A(359-547), -B(364-552) and -C(318-504) were subcloned into a pGEX-6p-2rbs vector, thus introducing the cloning artifact ‘GPLGS’.3 The pGEX-6P-1-GST-OSBP(377- […]
(§3) a gift from James H. Hurley (University of California).4 The pHIS_2His6_Thrombin_STARD4(2-205;C75S) plasmid was a gift from Young Jun Im (Chonnam National University).5 STARD5A was a gift from Nicola Burgess-Brown (Addgene plasmid #42392; http://n2t.net/addgene:42392; […]
(§4) Protein expression and purification […]
(§5) vectors including an N-terminal PreScission-cleavable glutathione S-transferase (GST)-tag were expressed in Escherichia coli (E. coli) OverExpress C41 in Terrific Broth (TB) medium for 16 h at 18 °C after the induction with 0.1 mM isopropyl β-D-1-thiogalactopyranoside (IPTG). Cells were harvested at 3500 × g for 15 minutes and lysed by sonication in buffer containing 50 mM HEPES pH 7.5, 300 mM NaCl, 10 %v/v glycerol, 5 mM dithiothreitol (DTT), 0.1 %v/v Triton X-100 and protease inhibitor mix HP plus (Serva). The lysate was purified by affinity chromatography on a GSTrap FF column (Cytiva) using an ÄKTA Start (Cytiva) in buffer containing 50 mM HEPES pH 7.5, 300 mM NaCl, 10 %v/v glycerol, 5 mM DTT and 0.01 %v/v Triton X-100. The GST-tag was cleaved overnight on the column at 4 °C. The Aster sterol binding domains were further purified by size-exclusion chromatography (SEC) on a HiLoad 16/600 Superdex 75 pg (Cytiva) in buffer containing 20 mM HEPES pH 7.5, 300 mM NaCl, 10 %v/v […]
(§6) STARD5(6-213) harboring an N-terminal His6-Tag were expressed in E. coli BL21(DE3) in Luria-Bertani Broth (LB) medium for approximately 16 h at 18 °C after induction with 0.15 mM IPTG. Cells were harvested at 3500 × g for 15 minutes and lysed by sonication in buffer containing 50 mM HEPES pH 7.5, 150 mM NaCl, 5 %v/v glycerol, 5 mM DTT, 0.1 %v/v Triton X -100 and ethylenediaminetetraacetic acid (EDTA)-free protease inhibitor cocktail (Sigma-Aldrich). The cleared lysate was purified by affinity chromatography on a Ni-NTA Superflow Cartridge (Qiagen) using an ÄKTA Start (Cytiva) in buffer containing 50 mM HEPES pH 7.5, 150 mM NaCl, 5 %v/v glycerol, 5 mM DTT. START domains were eluted by using elution buffer containing 50 mM HEPES pH 7.5, 150 mM NaCl, 5 %v/v glycerol, 5 mM DTT and 500 mM imidazole. Proteins were further purified by SEC on a HiLoad 16/600 Superdex 75 pg (Cytiva) in buffer containing 20 mM HEPES pH 7.5, 150 mM NaCl, 5 %v/v glycerol and 2 mM DTT.
(§7) The ORP domain of human OSBP(377-807) in the pGEX-6p-1 vector with an N-terminal PreScission-cleavable GST-tag was expressed in E. coli OverExpress C41 in LB medium for 16 h at 18 °C after induction with 0.1 mM IPTG. Cells were harvested at 3500 × g for 15 minutes and lysed by sonication in buffer containing 20 mM HEPES pH 7.5, 300 mM NaCl, 10 %v/v glycerol, 5 mM DTT, 0.1 %v/v Triton X-100 and EDTA-free protease inhibitor cocktail (Sigma-Aldrich). The cleared lysate was purified by affinity chromatography on a GSTrap HF column (Cytiva) using an ÄKTA Start (Cytiva) in buffer containing 20 mM HEPES pH 7.5, 300 mM NaCl, 10 %v/v glycerol, 5 mM DTT. OSBP(377 -807) was eluted by using elution buffer containing 20 mM HEPES pH 7.5, 300 mM NaCl, 10 %v/v glycerol, 5 mM DTT and 10 mM reduced glutathione. Proteins were further purified by SEC on a HiLoad 16/600 Superdex 75 pg (Cytiva) using an ÄKTA Explorer (Cytiva) in buffer containing 20 mM HEPES pH 7.5, 150 mM NaCl, 10 %v/v glycerol and 2 mM DTT.
(§8) The ORP domains of human ORP1(534-950) in pET24b(+) and ORP2(49-480) in the pET24b(+) vector including an N-terminal His6-Tag were expressed in E. coli BL21(DE3) in TB medium for approximately 16 h at 18 °C after induction with 0.1 mM IPTG. Cells were collected at 3500 × g for 15 minutes and lysed by sonification in buffer containing 10 mM Tris-HCl pH 8, 300 mM NaCl, 5 % glycerol, 2 mM DTT, 0.1 % Triton X-100 and EDTA-free protease inhibitor cocktail (Sigma-Aldrich). The cleared […]

OSBP = target: T2, OSBP (Homo sapiens, UniProt P22059); assay: Fluorescence polarisation (FP) competition with NBD-cholesterol, OSBP; details: single dose; for OSBP (FP) inhibition: Dose = 10 µM
T2 construct: OSBP(377-807); host or cells: E. coli OverExpress C41
T2 sequence (P22059 377-807): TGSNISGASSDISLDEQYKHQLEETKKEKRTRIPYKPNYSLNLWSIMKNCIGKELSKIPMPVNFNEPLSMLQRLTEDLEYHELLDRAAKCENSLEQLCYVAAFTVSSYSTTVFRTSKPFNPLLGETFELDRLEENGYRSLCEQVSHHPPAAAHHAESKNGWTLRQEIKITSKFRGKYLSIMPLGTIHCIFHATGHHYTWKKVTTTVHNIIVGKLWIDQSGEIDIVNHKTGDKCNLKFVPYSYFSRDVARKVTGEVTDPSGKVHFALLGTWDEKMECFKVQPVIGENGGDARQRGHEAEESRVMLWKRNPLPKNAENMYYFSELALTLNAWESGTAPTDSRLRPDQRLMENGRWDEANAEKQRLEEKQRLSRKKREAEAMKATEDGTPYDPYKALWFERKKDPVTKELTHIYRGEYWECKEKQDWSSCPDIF
From the text: as §1, §2, §3, §4, §5, §6, §7, §8

Aster-C = target: T3, Aster-C (Homo sapiens, UniProt Q8IYS0); assay: Fluorescence polarisation (FP) competition with NBD-cholesterol, Aster-C; details: for IC50: mean of three experiments run in technical duplicates; for inhibition at 10 µM / Aster-C (FP) inhibition: single dose, Dose = 10 µM
T3 construct: -C(318-504); GST (PreScission-cleavable) (N, cleaved yes); made in house; host or cells: E. coli OverExpress C41
From the text: as §1, §2, §3, §4, §5, §6, §7, §8

T3 sequence (Q8IYS0 318-504): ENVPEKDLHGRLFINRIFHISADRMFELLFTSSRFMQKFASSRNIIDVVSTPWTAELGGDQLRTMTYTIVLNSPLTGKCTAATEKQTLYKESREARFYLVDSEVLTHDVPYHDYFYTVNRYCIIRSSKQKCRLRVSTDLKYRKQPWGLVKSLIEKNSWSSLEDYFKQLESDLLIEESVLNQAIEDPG

SMILES	ΔTm at 10 µM (STARD3) [°C]	inhibition at 10 µM (OSBP) [%]	IC50 (Aster-C) [µM]	inhibition at 10 µM (Aster-C) [%]	Kd (STARD3) [µM]	STARD3 (DSF) ΔTmmax (STARD3) [°C]	Aster-C (FP) inhibition (Aster-C) [%]	STARD3 (DSF) ΔTm (STARD3) [°C]	OSBP (FP) inhibition (OSBP) [%]
C[C@]12CC[C@@H]3C[C@H]1CC[C@@]21C(=Nc2ccc(Br)cc21)O3 (racemic) [Compound 15b]	0.3	7	> 80	-1.6					
CC12CCC3CC1CCC21C(=Nc2ccc(N4CCOCC4)cc21)O3 (racemic) [Compound 19a]	1.2	3	> 80	-5					
CC12CCC3CC1CCC21C(=Nc2ccc(Br)cc21)O3 (single isomer, unassigned; (+)) [(+)-15b]	0.244	13.1	> 80	0	> 100	0.44			
CC12CCC3CC1CCC21C(=Nc2ccc(N4CCOCC4)cc21)O3 (single isomer, unassigned; (+)) [(+)-19a]	1.5	3.4	> 80		> 100	3.6	-0.8		
CC12CCC3CC1CCC21C(=Nc2ccc(N4CCOCC4)cc21)O3 (single isomer, unassigned; (-)) [(−)-19a]			> 80		> 100	0.9	-1.6	1.0	6.2
C[C@@]12CC[C@H]3C[C@@H]1CC[C@]21C(=Nc2ccc(Br)cc21)O3 [(−)-15b]	0.5	2.8	> 80	-0.8	> 100	0.7			
CC(C)Oc1ccc(C(=O)Nc2nc3c(s2)CN(C(=O)OC(C)(C)C)CC3)cc1 [Autogramin-2, reference compound]			> 80		> 30		-1.6	0.027	9.0
Cc1c2c(nc3ccccc13)[C@@]1(C)CC[C@@H](O)C[C@H]1CC2 [Compound 2a]	-0.0816	10		-2.4					
C[C@]12CC[C@@H](O)C[C@H]1CCc1c2nc2ccccc2c1-c1ccccc1 [Compound 2b]							-5.6	0.0566	-12.0
Cc1c2c(nc3cc(Br)ccc13)[C@@]1(C)CC[C@@H](O)C[C@H]1CC2 [Compound 2c]							-1.6	-0.168	-4.0
C[C@]12CC[C@@H](O)C[C@H]1CCc1c2nc2ccccc2c1-c1ccc(F)cc1 [Compound 2d]	0.0456	0		-2.4					
